Source: patent US20210024545A1, “SUBSTITUTED DIAZAHETERO-BICYCLIC COMPOUNDS AND THEIR USE” (Bayer Aktiengesellschaft, priority 2016, published 2021)

What was measured:
human TASK-1 = human TASK-1 (Homo sapiens, UniProt O14649); test: Inhibition of recombinant TASK-1 in stably transfected CHO cells, KCl-induced depolarization, voltage-sensitive dye (B-2); format: cell-based; set-up: expressed in transfected cells; host or cells: stably transfected CHO cells; settings: depolarization induced by 40 mM potassium chloride, some mean values from multiple determinations
Outline: (§1)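 Stably transfected CHO cells loaded with a voltage-sensitive membrane potential dye. Depolarization was induced with 40 mM KCl, and compound inhibition of it was read by fluorescence. IC50 is the concentration blocking half of the KCl-induced depolarization; some values are means of multiple independent determinations.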

human TASK-3 = human TASK-3 (Homo sapiens, UniProt Q9NPC2); test: Inhibition of recombinant TASK-3 in stably transfected CHO cells, KCl-induced depolarization, voltage-sensitive dye (B-2); format: cell-based; set-up: expressed in transfected cells; host or cells: stably transfected CHO cells; settings: depolarization induced by 40 mM potassium chloride, some mean values from multiple determinations
Outline: as §1

Chain of human TASK-3 (Q9NPC2 whole entry): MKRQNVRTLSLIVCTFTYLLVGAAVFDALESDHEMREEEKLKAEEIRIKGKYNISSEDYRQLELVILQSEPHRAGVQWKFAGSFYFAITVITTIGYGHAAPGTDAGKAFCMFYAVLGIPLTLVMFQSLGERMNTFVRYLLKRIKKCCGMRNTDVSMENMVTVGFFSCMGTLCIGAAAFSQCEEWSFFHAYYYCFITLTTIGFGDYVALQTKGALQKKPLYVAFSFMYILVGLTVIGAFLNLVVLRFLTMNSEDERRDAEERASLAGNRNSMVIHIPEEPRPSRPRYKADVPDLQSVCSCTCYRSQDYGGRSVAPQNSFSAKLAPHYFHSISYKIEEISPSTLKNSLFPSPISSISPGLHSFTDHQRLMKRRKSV
Chain of human TASK-1 (O14649 whole entry): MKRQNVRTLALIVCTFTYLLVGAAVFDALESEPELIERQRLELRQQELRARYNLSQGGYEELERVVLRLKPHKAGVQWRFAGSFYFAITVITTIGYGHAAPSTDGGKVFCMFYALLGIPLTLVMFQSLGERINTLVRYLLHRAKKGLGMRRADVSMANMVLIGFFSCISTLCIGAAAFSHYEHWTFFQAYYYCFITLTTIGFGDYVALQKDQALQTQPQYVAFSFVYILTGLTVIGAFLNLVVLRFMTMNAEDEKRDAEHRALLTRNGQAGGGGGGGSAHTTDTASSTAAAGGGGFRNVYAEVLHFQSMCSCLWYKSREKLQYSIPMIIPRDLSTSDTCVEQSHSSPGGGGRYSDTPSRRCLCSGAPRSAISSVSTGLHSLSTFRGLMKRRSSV

Compound: Cc1nc(C(=O)N2C3CCC2CN(Cc2c(-c4ccc(Cl)cc4)nc4ccccn24)C3)sc1C [Example 150, (3-{[2-(4-Chlorophenyl)imidazo[1,2-a]pyridin-3-yl]methyl}-3,8-diazabicyclo[3.2.1]oct-8-yl)(4,5-dimethyl-1,3-thiazol-2-yl)methanone]
- IC50 (human TASK-1): 2700 nM
- IC50 (human TASK-3): 210 nM

Compound: CC(C)NC(=O)N1C2CCC1CN(Cc1c(-c3ccc(Cl)cc3)nc3ccccn13)C2 [Example 154, 3-{[2-(4-Chlorophenyl)imidazo[1,2-a]pyridin-3-yl]methyl}-N-isopropyl-3,8-diazabicyclo[3.2.1]octane-8-carboxamide]
- IC50 (human TASK-1): 130 nM
- IC50 (human TASK-3): 29 nM

Compound: O=C(Nc1ccccc1F)N1C2CCC1CN(Cc1c(-c3ccc(Cl)cc3)nc3ccccn13)C2 [Example 155, 3-{[2-(4-Chlorophenyl)imidazo[1,2-a]pyridin-3-yl]methyl}-N-(2-fluorophenyl)-3,8-diazabicyclo[3.2.1]octane-8-carboxamide]
- IC50 (human TASK-1): 610 nM
- IC50 (human TASK-3): 210 nM

Compound: O=C(Nc1c(Cl)cccc1Cl)N1C2CCC1CN(Cc1c(-c3ccc(Cl)cc3)nc3ccccn13)C2 [Example 156, 3-{[2-(4-Chlorophenyl)imidazo[1,2-a]pyridin-3-yl]methyl}-N-(2,6-dichlorophenyl)-3,8-diazabicyclo[3.2.1]octane-8-carboxamide]
- IC50 (human TASK-1): 1200 nM
- IC50 (human TASK-3): 15 nM

Compound: Cc1cccc(C)c1NC(=O)N1C2CCC1CN(Cc1c(-c3ccc(Cl)cc3)nc3ccccn13)C2 [Example 157, 3-{[2-(4-Chlorophenyl)imidazo[1,2-a]pyridin-3-yl]methyl}-N-(2,6-dimethylphenyl)-3,8-diazabicyclo[3.2.1]octane-8-carboxamide]
- IC50 (human TASK-1): 24 nM
- IC50 (human TASK-3): 7.4 nM

Compound: CCCCCNC(=O)N1C2CCC1CN(Cc1c(-c3ccc(Cl)cc3)nc3ccccn13)C2 [Example 158, 3-{[2-(4-Chlorophenyl)imidazo[1,2-a]pyridin-3-yl]methyl}-N-pentyl-3,8-diazabicyclo[3.2.1]octane-8-carboxamide]
- IC50 (human TASK-1): 760 nM
- IC50 (human TASK-3): 110 nM

Compound: Cc1ccccc1NC(=O)N1C2CCC1CN(Cc1c(-c3ccc(Cl)cc3)nc3ccccn13)C2 [Example 159, 3-{[2-(4-Chlorophenyl)imidazo[1,2-a]pyridin-3-yl]methyl}-N-(2-methylphenyl)-3,8-diazabicyclo[3.2.1]octane-8-carboxamide]
- IC50 (human TASK-1): 2900 nM
- IC50 (human TASK-3): 220 nM

Compound: O=C(Nc1cc(C(F)(F)F)ccc1Cl)N1C2CCC1CN(Cc1c(-c3ccc(Cl)cc3)nc3ccccn13)C2 [Example 160, 3-{[2-(4-Chlorophenyl)imidazo[1,2-a]pyridin-3-yl]methyl}-N-[2-chloro-5-(trifluoromethyl)phenyl]-3,8-diazabicyclo[3.2.1]octane-8-carboxamide]
- IC50 (human TASK-1): 7600 nM
- IC50 (human TASK-3): 1000 nM

Compound: O=C(Nc1ccc(Cl)cc1)N1C2CCC1CN(Cc1c(-c3ccc(Cl)cc3)nc3ccccn13)C2 [Example 161, N-(4-Chlorophenyl)-3-{[2-(4-chlorophenyl)imidazo[1,2-a]pyridin-3-yl]methyl}-3,8-diazabicyclo[3.2.1]octane-8-carboxamide]
- IC50 (human TASK-1): 7700 nM
- IC50 (human TASK-3): 1000 nM

Compound: CCc1cccc(C)c1NC(=O)N1C2CCC1CN(Cc1c(-c3ccc(Cl)cc3)nc3ccccn13)C2 [Example 162, 3-{[2-(4-Chlorophenyl)imidazo[1,2-a]pyridin-3-yl]methyl}-N-(2-ethyl-6-methylphenyl)-3,8-diazabicyclo[3.2.1]octane-8-carboxamide]
- IC50 (human TASK-1): 53 nM
- IC50 (human TASK-3): 13 nM

Compound: Cc1ccc(C)c(NC(=O)N2C3CCC2CN(Cc2c(-c4ccc(Cl)cc4)nc4ccccn24)C3)c1 [Example 163, 3-{[2-(4-Chlorophenyl)imidazo[1,2-a]pyridin-3-yl]methyl}-N-(2,5-dimethylphenyl)-3,8-diazabicyclo[3.2.1]octane-8-carboxamide]
- IC50 (human TASK-1): 1400 nM
- IC50 (human TASK-3): 160 nM

Compound: O=C(NC1CCCCC1)N1C2CCC1CN(Cc1c(-c3ccc(Cl)cc3)nc3ccccn13)C2 [Example 164, 3-{[2-(4-Chlorophenyl)imidazo[1,2-a]pyridin-3-yl]methyl}-N-cyclohexyl-3,8-diazabicyclo[3.2.1]octane-8-carboxamide]
- IC50 (human TASK-1): 3100 nM
- IC50 (human TASK-3): 1000 nM

Compound: O=C(Nc1c(F)cccc1F)N1C2CCC1CN(Cc1c(-c3ccc(Cl)cc3)nc3ccccn13)C2 [Example 166, 3-{[2-(4-Chlorophenyl)imidazo[1,2-a]pyridin-3-yl]methyl}-N-(2,6-difluorophenyl)-3,8-diazabicyclo[3.2.1]octane-8-carboxamide]
- IC50 (human TASK-1): 990 nM
- IC50 (human TASK-3): 44 nM

Compound: Cc1ccc(NC(=O)N2C3CCC2CN(Cc2c(-c4ccc(Cl)cc4)nc4ccccn24)C3)c(C)c1 [Example 167, 3-{[2-(4-Chlorophenyl)imidazo[1,2-a]pyridin-3-yl]methyl}-N-(2,4-dimethylphenyl)-3,8-diazabicyclo[3.2.1]octane-8-carboxamide]
- IC50 (human TASK-1): 3000 nM
- IC50 (human TASK-3): 350 nM

Compound: CC(C)NC(=O)N1C2COCC1CN(Cc1c(-c3ccc(Cl)cc3)nc3ccccn13)C2 [Example 168, 7-{[2-(4-Chlorophenyl)imidazo[1,2-a]pyridin-3-yl]methyl}-N-isopropyl-3-oxa-7,9-diazabicyclo[3.3.1]nonane-9-carboxamide]
- IC50 (human TASK-1): 1400 nM
- IC50 (human TASK-3): 130 nM

Compound: Cc1cccc(Cl)c1NC(=O)N1C2COCC1CN(Cc1c(-c3ccc(Cl)cc3)nc3ccccn13)C2 [Example 169, N-(2-Chloro-6-methylphenyl)-7-{[2-(4-chlorophenyl)imidazo[1,2-a]pyridin-3-yl]methyl}-3-oxa-7,9-diazabicyclo[3.3.1]nonane-9-carboxamide]
- IC50 (human TASK-1): 3600 nM
- IC50 (human TASK-3): 110 nM

Compound: O=C(NC1CC1)N1C2CCC1CN(Cc1c(-c3ccc(Cl)cc3)nc3ccccn13)C2 [Example 170, 3-{[2-(4-Chlorophenyl)imidazo[1,2-a]pyridin-3-yl]methyl}-N-cyclopropyl-3,8-diazabicyclo[3.2.1]octane-8-carboxamide]
- IC50 (human TASK-1): 1200 nM
- IC50 (human TASK-3): 64 nM

Compound: O=C(Nc1ccccc1Cl)N1C2CCC1CN(Cc1c(-c3ccc(Cl)cc3)nc3ccccn13)C2 [Example 171, N-(2-Chlorophenyl)-3-{[2-(4-chlorophenyl)imidazo[1,2-a]pyridin-3-yl]methyl}-3,8-diazabicyclo[3.2.1]octane-8-carboxamide]
- IC50 (human TASK-1): 1800 nM
- IC50 (human TASK-3): 26 nM

Compound: CN(C(=O)N1C2CCC1CN(Cc1c(-c3ccc(Cl)cc3)nc3ccccn13)C2)c1ccccc1 [Example 172, 3-{[2-(4-Chlorophenyl)imidazo[1,2-a]pyridin-3-yl]methyl}-N-methyl-N-phenyl-3,8-diazabicyclo[3.2.1]octane-8-carboxamide]
- IC50 (human TASK-1): 5200 nM
- IC50 (human TASK-3): 80 nM

Compound: O=C(N1CCOCC1)N1C2CCC1CN(Cc1c(-c3ccc(Cl)cc3)nc3ccccn13)C2 [Example 173, (3-{[2-(4-Chlorophenyl)imidazo[1,2-a]pyridin-3-yl]methyl}-3,8-diazabicyclo[3.2.1]oct-8-yl)(morpholin-4-yl)methanone]
- IC50 (human TASK-1): 1700 nM
- IC50 (human TASK-3): 32 nM

Compound: CC(C)N(C(=O)N1C2CCC1CN(Cc1c(-c3ccc(Cl)cc3)nc3ccccn13)C2)C(C)C [Example 174, 3-{[2-(4-Chlorophenyl)imidazo[1,2-a]pyridin-3-yl]methyl}-N,N-diisopropyl-3,8-diazabicyclo[3.2.1]octane-8-carboxamide]
- IC50 (human TASK-1): 91 nM
- IC50 (human TASK-3): 13 nM
